Columns and labels:
KCHSC = test: Herbicidal pre-emergence action - Part I; type: in vivo, Kochia scoparia; settings: 1280 g/ha
How it was run: (§1)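 In this greenhouse pre-emergence test, formulated compounds with 0.5% additive were applied at 1280 g/ha or below onto the soil covering sown weed seeds in sandy loam. After roughly three weeks, plant damage was scored by eye in percent versus untreated controls.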

TRZAS = test: Post-emergence effects on crop plants; type: in vivo, Triticum aestivum; settings: crop plant
How it was run: (§2)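 Crop plants were grown in sandy loam in the greenhouse and sprayed at the single-leaf stage, 2–3 weeks after sowing, with WP or EC formulations plus 0.5% additive in 600 l water/ha, at rates of 320 g/ha or below. Injury was scored visually about 3 weeks later as % effect versus untreated controls (100% = plants dead).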

ORYZA [1] = test: Pre-emergence effects on crop plants; type: in vivo, Oryza sativa; settings: crop plant
From the text: Seeds of mono- and dicotyledonous weed plants and crop plants were sown, in plastic or organic planting pots, in sandy loam and covered with soil. The compounds according to the invention, formulated in the form of wettable powders (WP) or as emulsifiable concentrates (EC), were applied to the surface of the covering soil as aqueous suspension or emulsion, with the addition of 0.5% of an additive, at an application rate of 600 1 of water/ha (converted). Following treatment, the pots were placed in a greenhouse and kept under optimum growth conditions for the test plants. The visual grading of the damage to the test plants was carried out after ca. 3 weeks in comparison to untreated controls (herbicidal effect in percent (%): 100% effect = plants have died off, 0% effect = as control plants). Tables D1 to D5 below show the effects of various compounds of the general formula (I) according to Table 1 on various crop plants and an application rate corresponding to 320 g/ha or below obtained by the experimental procedure mentioned above in Biological Examples, Section C. Table […]: pre-emergence activity at 320g/ha against ZEAMX in %

AMARE = test: Herbicidal pre-emergence action - Part II; type: in vivo, Amaranthus retroflexus; settings: visual grading after ca. 3 weeks vs untreated controls
From the text: (§3) Seeds of mono- and dicotyledonous weed plants and crop plants were sown, in plastic or organic planting pots, in sandy loam and covered with soil. The compounds according to the invention, formulated in the form of wettable powders (WP) or as emulsifiable concentrates (EC), were applied to the surface of the covering soil as aqueous suspension or emulsion, with the addition of 0.5% of an additive, at an application rate of 600 1 of water/ha (converted). Following treatment, the pots were placed in a greenhouse and kept under optimum growth conditions for the test plants. The visual grading of the damage to the test plants was carried out after ca. 3 weeks in comparison to untreated controls (herbicidal effect in percent (%): 100% effect = plants have died off, 0% effect = as control plants). Tables C1 to C12 below show the effects of selected compounds of the general formula (I) according to table 1 on various harmful plants and an application rate corresponding to 320 g/ha or below obtained by the experimental procedure mentioned above. Table C1: pre-emergence activity at 320g/ha against ABUTH in %

ZEAMX = test: Post-emergence effects on crop plants; type: in vivo, Zea mays; settings: crop plant
How it was run: as §2

ORYZA [2] = test: Post-emergence effects on crop plants; type: in vivo, Oryza sativa; settings: crop plant
From the text: (§4) Seeds of mono- and dicotyledonous weed plants and crop plants were sown, in plastic or organic planting pots, in sandy loam, covered with soil and grown in a greenhouse under controlled growth conditions. 2 to 3 weeks after sowing, the test plants were sprayed in the single-leaf stage. The compounds according to the invention, formulated in form of wettable powders (WP) or as emulsifiable concentrates (EC), were sprayed onto the green plant parts as aqueous suspension or emulsion, with the addition of 0.5% of an additive, at an application rate of 600 1 of water/ha (converted). The test plants were placed in the greenhouse for ca. 3 weeks under optimum growth conditions, and then the effect of the preparations was assessed visually in comparison with untreated controls (herbicidal effect in percent (%): 100% effect = plants have died off, 0% effect = as control plants). Tables F1 to F5 below show the effects of selected compounds of the general formula (I) according to table 1 on various crop plants and an application rate corresponding to 320 g/ha or below obtained by the experimental procedure mentioned above. Table […]: post-emergence activity at 5g/ha against ZEAMX in %

STEME [3] = test: Herbicidal post-emergence action - Part I; type: in vivo, Stellaria media; settings: 1280 g/ha, one-leaf stage, rated visually after about 3 weeks vs untreated controls
How it was run: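 Activity was scored visually as % damage (100% = dead, 0% = like untreated) about 3 weeks after treatment. Plants at the one-leaf stage, 2-3 weeks old, were sprayed with WP/EC formulations plus 0.5% additive (600 L/ha water, up to 1280 g/ha). Plants were grown in sandy loam in a greenhouse.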

DIGSA = test: Herbicidal pre-emergence action - Part II; type: in vivo, Digitaria sanguinalis
From the text: as §3

GLXMA = test: Post-emergence effects on crop plants; type: in vivo, Glycine max; settings: crop plant
From the text: as §4

STEME [4] = test: Herbicidal pre-emergence action - Part I; type: in vivo, Stellaria media; settings: visual grading after ca. 3 weeks vs untreated controls
How it was run: as §1

[5] = Table A10a, visual grading after ca. 3 weeks vs untreated controls

SMILES | pre-emergence activity at 1280g/ha against KCHSC in % (KCHSC; 504 h) | pre-emergence activity at 1280g/ha against KCHSC in % (KCHSC; [5]) | post-emergence activity against TRZAS (TRZAS; 80 g/ha, Table F2c) | post-emergence activity against TRZAS (TRZAS; 320 g/ha, Table F2d) | pre-emergence activity against ORYZA (ORYZA [1]; 80 g/ha, Table D3b) | pre-emergence activity at 320g/ha against AMARE in % (AMARE) | post-emergence activity against ZEAMX (ZEAMX; 80 g/ha, Table F1c) | post-emergence activity against ZEAMX (ZEAMX; 320 g/ha, Table F1d) | post-emergence activity against ORYZA (ORYZA [2]; 320 g/ha, Table F3a) | post-emergence activity at 1280g/ha against STEME in % (STEME [3]) | pre-emergence activity against DIGSA (DIGSA; 80 g/ha, Table C5b) | pre-emergence activity against DIGSA (DIGSA; 320 g/ha, Table C5a) | post-emergence activity against GLXMA (GLXMA; 80 g/ha, Table F4c) | pre-emergence activity at 80g/ha against STEME in % (STEME [4]; 80 g/ha) | pre-emergence activity at 320g/ha against STEME in % (STEME [4]) | pre-emergence activity at 1280g/ha against STEME in % (STEME [4]) | pre-emergence activity against ORYZA (ORYZA [1]; Table D3a, title: 320g/ha, application rate: 80 g/ha) | post-emergence activity against ORYZA (ORYZA [2]; Table F3b, title: 80g/ha, application rate column: 320 g/ha) | post-emergence activity against GLXMA (GLXMA; Table F4d, title: 320 g/ha, application rate: 80 g/ha)
Cc1ccsc1C1=NOC2(CCCN(Cc3c(F)cccc3F)C2=O)C1 (racemic) [Compound I-2] | 90% | 90% | 0% | 0% | 0% | 90% | 0% | 20% | 20% | 90% | 90% | 100% | 0% | 90% | 90% | 90% | – | – | –
Cc1ccsc1C1=NOC2(CCN(Cc3c(F)cccc3F)C2=O)C1 (racemic) [Compound I-16, 7-(2,6-Difluorobenzyl)-3-(3-methyl-2-thienyl)-1-oxa-2,7-diazaspiro[4.4]non-2-en-6-one] | – | 90% | 0% | 0% | 0% | 80% | 0% | 0% | 0% | 90% | – | 80% | 0% | – | – | 90% | 20% | 0% | 0%
O=C1N(Cc2ccccc2F)CCC12CC(c1c(F)cccc1F)=NO2 (racemic) [Compound I-10] | 90% | 90% | 0% | 10% | 0% | 80% | 0% | 0% | 0% | 90% | – | 90% | 0% | – | 90% | 90% | – | – | –

— patent publication EP4509511A1, “SUBSTITUTED SPIRO-ISOXAZOLINYL LACTAMS, SALTS THEREOF AND THEIR USE AS HERBICIDALLY ACTIVE SUBSTANCES” (Bayer Aktiengesellschaft, priority 2023, dated 2025)
